The text below walks through data of article PMC8524670 (Pharmacology Research & Perspectives, 2021).

The target in data set [1] is T1, OAT3 (Homo sapiens, UniProt Q8TCC7).
T1 sequence (Q8TCC7 1-542): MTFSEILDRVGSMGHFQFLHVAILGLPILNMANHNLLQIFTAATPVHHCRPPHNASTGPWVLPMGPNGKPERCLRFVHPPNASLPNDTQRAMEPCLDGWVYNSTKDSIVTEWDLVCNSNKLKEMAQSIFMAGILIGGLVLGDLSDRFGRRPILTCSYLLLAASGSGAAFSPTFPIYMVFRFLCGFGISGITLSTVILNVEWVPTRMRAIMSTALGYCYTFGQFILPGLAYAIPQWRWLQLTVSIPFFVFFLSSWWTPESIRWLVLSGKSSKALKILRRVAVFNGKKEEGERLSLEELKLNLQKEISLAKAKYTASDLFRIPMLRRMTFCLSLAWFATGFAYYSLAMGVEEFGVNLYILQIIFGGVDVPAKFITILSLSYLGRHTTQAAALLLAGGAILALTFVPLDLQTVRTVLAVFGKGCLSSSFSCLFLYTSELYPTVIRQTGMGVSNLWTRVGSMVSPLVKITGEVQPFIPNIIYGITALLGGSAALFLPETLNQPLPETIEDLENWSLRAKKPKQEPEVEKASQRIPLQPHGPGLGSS
Description: SLC transportation assay in HEK293 cells. Format: in vitro ADME. Conditions: uptake ratios <2 at 0.1, 0.3, 5 µM.

Another data set deals with CYP3A (Homo sapiens, UniProt P08684). Briefly: CYP reversible inhibition in HLMs. Particulars: for R1: DDI basic model, hepatic; for R1 , gut: intestinal CYP3A, basic model; for Ag / Ah: static model term; for Ag: gut inhibition; for Ah: liver inhibition.
Another data set addresses P-gp (Homo sapiens, UniProt P08183). Briefly: P-gp inhibition in Caco-2 cells. It counts as in vitro ADME. Conditions: up to 10 μM.
A further data set addresses T2, CYP1A2 (Homo sapiens, UniProt P05177).
T2 sequence (P05177 1-516): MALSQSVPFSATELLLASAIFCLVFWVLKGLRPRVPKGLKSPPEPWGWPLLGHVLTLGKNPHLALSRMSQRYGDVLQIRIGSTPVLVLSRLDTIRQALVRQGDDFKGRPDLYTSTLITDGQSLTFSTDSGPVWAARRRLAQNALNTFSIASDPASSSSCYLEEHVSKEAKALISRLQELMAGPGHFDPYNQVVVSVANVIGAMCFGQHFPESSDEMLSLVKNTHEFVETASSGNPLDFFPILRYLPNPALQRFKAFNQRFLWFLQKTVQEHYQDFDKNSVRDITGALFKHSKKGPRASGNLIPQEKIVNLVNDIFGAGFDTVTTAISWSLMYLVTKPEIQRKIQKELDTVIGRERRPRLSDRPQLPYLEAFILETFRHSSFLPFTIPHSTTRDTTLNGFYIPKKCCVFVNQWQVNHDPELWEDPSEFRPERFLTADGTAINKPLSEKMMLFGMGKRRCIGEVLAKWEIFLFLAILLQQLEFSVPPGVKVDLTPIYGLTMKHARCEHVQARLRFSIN
Conditions: 10 µM zanubrutinib, 30 min pre-incubation with HLMs and NADPH.

A further data set has as its target CYP2C9 (Homo sapiens, UniProt P11712). Description: CYP reversible inhibition in HLMs. Particulars: diclofenac.
Data set [2] is described as follows: Clinical pharmacokinetic parameters of zanubrutinib. It counts as in vivo, human.
The test system of the next data set is CYP2B6. Description: CYP induction in human hepatocytes. It counts as in vitro ADME.
Data set [3] has as its target T1, OAT3. Description: SLC inhibition assay in HEK293 cells. Format: in vitro ADME.
The target in another data set is T3, OATP1B3 (Homo sapiens, UniProt Q9NPD5).
T3 sequence (Q9NPD5 1-702): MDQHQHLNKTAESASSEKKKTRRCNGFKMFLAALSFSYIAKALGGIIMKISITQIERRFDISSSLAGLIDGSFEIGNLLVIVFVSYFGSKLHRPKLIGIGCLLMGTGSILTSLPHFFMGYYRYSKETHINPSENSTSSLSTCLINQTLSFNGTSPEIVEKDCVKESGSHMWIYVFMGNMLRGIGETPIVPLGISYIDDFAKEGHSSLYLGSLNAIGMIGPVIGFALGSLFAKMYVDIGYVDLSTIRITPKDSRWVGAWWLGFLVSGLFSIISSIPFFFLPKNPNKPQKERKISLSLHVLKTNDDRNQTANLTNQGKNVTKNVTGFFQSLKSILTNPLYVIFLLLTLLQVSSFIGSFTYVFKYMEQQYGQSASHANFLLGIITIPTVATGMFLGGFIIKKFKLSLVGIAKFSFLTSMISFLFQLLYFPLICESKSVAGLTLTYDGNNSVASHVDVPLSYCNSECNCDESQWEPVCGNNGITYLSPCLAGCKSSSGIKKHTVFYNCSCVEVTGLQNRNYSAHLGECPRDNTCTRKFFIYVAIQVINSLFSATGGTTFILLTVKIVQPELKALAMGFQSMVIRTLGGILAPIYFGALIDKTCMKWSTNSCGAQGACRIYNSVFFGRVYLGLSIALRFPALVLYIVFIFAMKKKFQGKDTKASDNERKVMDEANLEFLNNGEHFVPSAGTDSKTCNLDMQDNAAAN
Briefly: SLC inhibition assay in HEK293 cells. It counts as in vitro ADME. Conditions: 0.05–5 µM.

[4] abbreviates: human, HEK293 cells overexpressing OAT3 (and MOCK cells), probe estrone sulfate.

Each structure is given as a SMILES string.

Chain of CYP3A (P08684 2-503): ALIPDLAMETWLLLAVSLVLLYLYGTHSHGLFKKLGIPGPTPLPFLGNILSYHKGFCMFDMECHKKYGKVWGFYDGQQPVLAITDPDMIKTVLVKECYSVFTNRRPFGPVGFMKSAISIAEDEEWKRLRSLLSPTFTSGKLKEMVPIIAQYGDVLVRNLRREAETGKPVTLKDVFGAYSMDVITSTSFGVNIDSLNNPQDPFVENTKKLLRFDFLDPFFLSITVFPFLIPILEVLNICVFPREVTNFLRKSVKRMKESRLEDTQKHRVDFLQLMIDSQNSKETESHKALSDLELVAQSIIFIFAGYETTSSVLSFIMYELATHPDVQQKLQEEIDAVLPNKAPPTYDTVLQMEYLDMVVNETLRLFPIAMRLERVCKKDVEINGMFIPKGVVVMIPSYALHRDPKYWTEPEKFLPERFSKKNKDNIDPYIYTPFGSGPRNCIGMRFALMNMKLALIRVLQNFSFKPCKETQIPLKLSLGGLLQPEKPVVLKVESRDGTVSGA
Chain of CYP2C9 (P11712 whole entry): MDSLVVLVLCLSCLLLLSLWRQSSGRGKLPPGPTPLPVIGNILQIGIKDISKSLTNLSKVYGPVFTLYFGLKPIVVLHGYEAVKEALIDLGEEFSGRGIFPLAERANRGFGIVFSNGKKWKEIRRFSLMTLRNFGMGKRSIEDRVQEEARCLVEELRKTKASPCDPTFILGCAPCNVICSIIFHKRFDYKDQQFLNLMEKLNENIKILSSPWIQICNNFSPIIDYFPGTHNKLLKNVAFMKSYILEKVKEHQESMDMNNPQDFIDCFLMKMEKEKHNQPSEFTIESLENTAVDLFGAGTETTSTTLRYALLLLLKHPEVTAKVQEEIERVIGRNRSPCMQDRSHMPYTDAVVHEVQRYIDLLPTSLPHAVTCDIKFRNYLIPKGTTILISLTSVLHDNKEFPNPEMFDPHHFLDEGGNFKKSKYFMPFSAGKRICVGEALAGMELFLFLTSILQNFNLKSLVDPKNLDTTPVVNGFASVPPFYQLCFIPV
Chain of P-gp (P08183 whole entry): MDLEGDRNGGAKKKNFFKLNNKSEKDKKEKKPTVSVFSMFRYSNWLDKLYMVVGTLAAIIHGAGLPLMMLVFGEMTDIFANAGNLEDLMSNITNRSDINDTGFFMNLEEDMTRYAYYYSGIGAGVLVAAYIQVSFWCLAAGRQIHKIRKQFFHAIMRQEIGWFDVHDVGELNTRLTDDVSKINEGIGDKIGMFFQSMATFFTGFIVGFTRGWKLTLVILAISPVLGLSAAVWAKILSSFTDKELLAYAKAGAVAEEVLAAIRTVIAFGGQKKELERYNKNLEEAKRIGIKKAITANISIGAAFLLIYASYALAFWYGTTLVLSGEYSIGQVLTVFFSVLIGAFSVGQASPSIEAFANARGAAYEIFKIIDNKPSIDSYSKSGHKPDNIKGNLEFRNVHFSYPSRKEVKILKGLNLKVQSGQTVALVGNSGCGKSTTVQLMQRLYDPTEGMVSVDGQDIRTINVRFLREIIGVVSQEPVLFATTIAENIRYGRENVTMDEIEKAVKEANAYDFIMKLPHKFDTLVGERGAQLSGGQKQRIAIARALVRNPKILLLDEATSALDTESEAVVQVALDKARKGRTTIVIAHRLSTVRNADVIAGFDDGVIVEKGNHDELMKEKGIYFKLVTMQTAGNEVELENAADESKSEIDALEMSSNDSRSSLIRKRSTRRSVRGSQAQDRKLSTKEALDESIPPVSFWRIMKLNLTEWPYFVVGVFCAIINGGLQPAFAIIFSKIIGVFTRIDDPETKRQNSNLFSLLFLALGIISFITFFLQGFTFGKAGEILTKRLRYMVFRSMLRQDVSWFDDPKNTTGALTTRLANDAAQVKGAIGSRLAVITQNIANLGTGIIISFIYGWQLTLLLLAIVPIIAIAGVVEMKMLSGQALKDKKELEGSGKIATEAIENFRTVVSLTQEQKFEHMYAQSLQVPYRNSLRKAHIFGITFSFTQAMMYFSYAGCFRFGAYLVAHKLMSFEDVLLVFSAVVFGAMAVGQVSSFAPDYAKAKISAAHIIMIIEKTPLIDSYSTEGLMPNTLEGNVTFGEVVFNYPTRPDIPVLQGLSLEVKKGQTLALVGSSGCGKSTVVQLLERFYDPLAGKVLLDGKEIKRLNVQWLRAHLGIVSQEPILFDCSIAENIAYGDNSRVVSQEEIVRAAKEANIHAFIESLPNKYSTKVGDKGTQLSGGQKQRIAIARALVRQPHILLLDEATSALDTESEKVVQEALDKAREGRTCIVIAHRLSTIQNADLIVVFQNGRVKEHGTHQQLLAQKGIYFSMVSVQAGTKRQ

With `C=CC(=O)N1CCC([C@@H]2CCNc3c(C(N)=O)c(-c4ccc(Oc5ccccc5)cc4)nn32)CC1` [zanubrutinib], the Substrate status result at OAT3 [1] is “unlikely to be a substrate”. For the same molecule, at CYP3A (midazolam), the R1 was 1.00; the “R1 , gut” value turned out to be 241; the Ag was 0.45; the Ah came out at 0.99. Also, on CYP3A (testosterone), the R1 is 1.00; the “R1 , gut” value is 58; the Ag turned out to be 0.77; the Ah turned out to be 1.00. For the same molecule, the P-gp inhibitor status result at P-gp is “not a significant inhibitor of P‐gp”. The “Percent loss of enzymatic activity” value at CYP1A2 is recorded as 8.10%. At CYP2C9 (DDI basic model, hepatic), this molecule gave an R1 of 1.04. This molecule also came in with an Ah at CYP2C9 (static model term, liver inhibition) of 0.96. In data set [2] (160 mg BID), the “Igut (intestinal concentration, Dose/250 ml)” value is reported as ~ 1360 µM. Besides, the “Fa (fraction absorbed)” value in data set [2] (estimated from a human mass balance study) is on record as 0.70. For the same molecule, in the data set with CYP2B6 (DDI basic model value for induction), the “R 3” value came to 0.55. The half-maximal effective concentration (EC50) at 2 days in the data set on CYP2B6 (human, cryopreserved human hepatocytes) turned out to be 730 nM. The molecule also gave a Ch in the data set on CYP2B6 (static model term, induction in liver) of 1.23. On OAT3 [3] (0.05–5 µM), the “Inhibition of uptake activity” value is “not inhibited”. Also, on OAT3 [3] (setting [4]), the activity at 0.05 µM stood at 90 ± 4.2%, the activity at 0.2 µM is 97.8 ± 7.7%, the activity at 1 µM is 113 ± 27% and the activity at 5 µM was determined as 199 ± 34%. Also, the “Inhibition of uptake activity” value at OATP1B3 is “not inhibited”.

What is called EC50 is the concentration that produces a half-maximal response.
